Measured values from patent EP4745130A1, “CRYSTAL FORMS OF TUBULIN-SRC DUAL-TARGETING INHIBITOR, PREPARATION METHOD THEREFOR AND USE THEREOF” (Hubei Bio-Pharmaceutical Industrial Technological Institute …, priority 2023, dated 2025).
Counter-ions that a name gives are not always drawn.

Tests used:
[1] = Solid-state stability (XRPD and HPLC after open storage); assay type: physicochemical; settings: for Crystal form: XRPD
Experimental: The purity test, dynamic solubility test, and stability test in the assay were measured using an Agilent 1260 high-performance liquid chromatograph, and the salt formation molar ratio of ions was tested by ion chromatography, and the analytical conditions are shown in Table 19 and Table 20. Table 19 High-performance liquid chromatography test conditions

[2] = Hygroscopicity test by dynamic vapor sorption (DVS); assay type: physicochemical; settings: DVS, 25°C, 0%RH to 95%RH
Experimental: The dynamic vapor sorption (DVS) curve was collected on DVS IntrInsic from SMS (surface measurement systems). The relative humidity at 25°C was corrected using the deliquescence points of LiCl, Mg(NO3)2, and KCl. Table 18 DVS test parameters
The percentage change in sample mass was collected under constant temperature at 25°C as humidity varied from 0%RH to 95%RH.

[3] = Dynamic solubility experiment at 37°C (water, SGF, FaSSIF, FeSSIF); settings: for S: solubility: solid feed 10 mg/mL; for pH: pH value of the filtrate
Experimental: Rotating mixing was carried out at 37°C at a solid feed concentration of 10 mg/mL (calculated as the compound of Formula I). […] After sampling at each time point, the samples were centrifuged (10000 rpm) and filtered (0.45 µm PTFE filter head), and the HPLC concentration and pH value of the filtrate were measured.
100 mg of NaCl and 50 mg of Triton X-100 were weighed into a 50 mL volumetric flask, and purified water was added to complete dissolution. 816 µL of 1 M hydrochloric acid was added thereto, and the pH was adjusted to 1.8 with 1 M hydrochloric acid or 1 M NaOH solution. Purified water was added to make up to volume.
340 mg of anhydrous NaH2PO4 and 620 mg of NaCl were weighed into a 100 mL volumetric flask. Purified water was added to complete dissolution, followed by addition of 55.44 µL of 50% NaOH solution, and the pH was adjusted to 6.5 using 1M HCl or 1M NaOH solution. Purified water was added to make up to volume. 110 mg of SIF powder was then weighed into a 50 mL volumetric flask, added with the above solution to complete dissolution and make up to volume.
0.82 mL of glacial acetic acid and 1.18 g of NaCl were added to a 100 mL volumetric flask. Purified water was added to complete dissolution, followed by addition of 528 µL of 50% NaOH solution, and the pH was adjusted to 5.0 using 1M HCl or 1M NaOH solution. Purified water was added to make up to volume. 560 mg of SIF powder was then weighed into a 50 mL volumetric flask, added with the above solution to complete dissolution and make up to volume.

[4] = 25°C/60%RH/open, 1 week, listed as Crystal form A ofp-toluenesulfonate salt
[5] = 40°C/75%RH/open, 1 week, listed as Crystal form A ofp-toluenesulfonate salt

Cc1cc(OCCN2C[C@H]3COC[C@H]3C2)ccc1-c1ccc(CC(=O)NCc2ccccc2)nc1 [Crystal form B of oxalate salt]
Purity (area%) ([1]; 25°C/60%RH/open, 1 week): 97.49 area% | Relative to initial (%) ([1]; 25°C/60%RH/open, 1 week): 100.0% | Crystal form ([1]; 25°C/60%RH/open, 1 week): Crystal form B of oxalate salt | Purity (area%) ([1]; 40°C/75%RH/open, 1 week): 97.52 area% | Relative to initial (%) ([1]; 40°C/75%RH/open, 1 week): 100.1% | Crystal form ([1]; 40°C/75%RH/open, 1 week): Crystal form B of oxalate salt | Purity (area%) ([1]; Initial): 97.47 area% | hygroscopicity ([2]; listed as crystal form B of the oxalate salt): slightly hygroscopic | S: solubility ([3]; FaSSIF, 1 hour, 60 min): 9270 µg/mL | S: solubility ([3]; FaSSIF, 4 hours, 240 min): 8890 µg/mL | S: solubility ([3]; FaSSIF, 24 hours, 1440 min): 8470 µg/mL | S: solubility ([3]; FeSSIF, 1 hour, 60 min): 3800 µg/mL | S: solubility ([3]; FeSSIF, 4 hours, 240 min): 3660 µg/mL | S: solubility ([3]; FeSSIF, 24 hours, 1440 min): 3480 µg/mL | S: solubility ([3]; H2O, 1 hour, 60 min): 9650 µg/mL | S: solubility ([3]; H2O, 4 hours, 240 min): 9650 µg/mL | S: solubility ([3]; H2O, 24 hours, 1440 min): 9360 µg/mL | S: solubility ([3]; SGF, 1 hour, 60 min): 9990 µg/mL | S: solubility ([3]; SGF, 4 hours, 240 min): 9790 µg/mL | S: solubility ([3]; SGF, 24 hours, 1440 min): 9610 µg/mL | pH ([3]; FaSSIF, 1 hour): 4.2 | pH ([3]; FaSSIF, 4 hours): 4.2 | pH ([3]; FaSSIF, 24 hours): 4.2 | pH ([3]; FeSSIF, 1 hour): 4.7 | pH ([3]; H2O, 1 hour): 3.8 | pH ([3]; H2O, 4 hours): 3.8 | pH ([3]; H2O, 24 hours): 3.9 | pH ([3]; SGF, 1 hour): 3.1 | pH ([3]; SGF, 4 hours): 3.1 | pH ([3]; SGF, 24 hours): 3.1

Cc1cc(OCCN2C[C@H]3COC[C@H]3C2)ccc1-c1ccc(CC(=O)NCc2ccccc2)nc1
Crystal form [1, 4]: Crystal form A of p-toluenesulfonate salt | Purity (area%) [1, 4]: 97.38 area% | Relative to initial (%) [1, 4]: 99.7% | Crystal form [1, 5]: Crystal form A of p-toluenesulfonate salt | Purity (area%) [1, 5]: 97.38 area% | Relative to initial (%) [1, 5]: 99.7% | Purity (area%) ([1]; Initial, listed as Crystal form A ofp-toluenesulfonate salt): 97.67 area% | hygroscopicity ([2]; listed as crystal form A of the p-toluenesulfonate salt): slightly hygroscopic | S: solubility ([3]; FaSSIF, 1 hour, listed as Crystal form A ofp-toluenesulfonate salt, 60 min): 2780 µg/mL | S: solubility ([3]; FaSSIF, 4 hours, listed as Crystal form A ofp-toluenesulfonate salt, 240 min): 2780 µg/mL | S: solubility ([3]; FaSSIF, 24 hours, listed as Crystal form A ofp-toluenesulfonate salt, 1440 min): 2680 µg/mL | S: solubility ([3]; FeSSIF, 1 hour, listed as Crystal form A ofp-toluenesulfonate salt, 60 min): 4120 µg/mL | S: solubility ([3]; FeSSIF, 4 hours, listed as Crystal form A ofp-toluenesulfonate salt, 240 min): 2510 µg/mL | S: solubility ([3]; FeSSIF, 24 hours, listed as Crystal form A ofp-toluenesulfonate salt, 1440 min): 2300 µg/mL | S: solubility ([3]; H2O, 1 hour, listed as Crystal form A ofp-toluenesulfonate salt, 60 min): 5970 µg/mL | S: solubility ([3]; H2O, 4 hours, listed as Crystal form A ofp-toluenesulfonate salt, 240 min): 6130 µg/mL | S: solubility ([3]; H2O, 24 hours, listed as Crystal form A ofp-toluenesulfonate salt, 1440 min): 5750 µg/mL | S: solubility ([3]; SGF, 1 hour, listed as Crystal form A ofp-toluenesulfonate salt, 60 min): 9410 µg/mL | S: solubility ([3]; SGF, 4 hours, listed as Crystal form A ofp-toluenesulfonate salt, 240 min): 9460 µg/mL | S: solubility ([3]; SGF, 24 hours, listed as Crystal form A ofp-toluenesulfonate salt, 1440 min): 8970 µg/mL | pH ([3]; FaSSIF, 1 hour, listed as Crystal form A ofp-toluenesulfonate salt): 6.0 | pH ([3]; FaSSIF, 4 hours, listed as Crystal form A ofp-toluenesulfonate salt): 6.1 | pH ([3]; FaSSIF, 24 hours, listed as Crystal form A ofp-toluenesulfonate salt): 6.1 | pH ([3]; FeSSIF, 1 hour, listed as Crystal form A ofp-toluenesulfonate salt): 4.9 | pH ([3]; FeSSIF, 4 hours, listed as Crystal form A ofp-toluenesulfonate salt): 4.9 | pH ([3]; FeSSIF, 24 hours, listed as Crystal form A ofp-toluenesulfonate salt): 4.9 | pH ([3]; H2O, 1 hour, listed as Crystal form A ofp-toluenesulfonate salt): 5.3 | pH ([3]; H2O, 4 hours, listed as Crystal form A ofp-toluenesulfonate salt): 5.4 | pH ([3]; H2O, 24 hours, listed as Crystal form A ofp-toluenesulfonate salt): 5.2 | pH ([3]; SGF, 1 hour, listed as Crystal form A ofp-toluenesulfonate salt): 3.3 | pH ([3]; SGF, 4 hours, listed as Crystal form A ofp-toluenesulfonate salt): 3.3 | pH ([3]; SGF, 24 hours, listed as Crystal form A ofp-toluenesulfonate salt): 3.3

Cc1cc(OCCN2C[C@H]3COC[C@H]3C2)ccc1-c1ccc(CC(=O)NCc2ccccc2)nc1 [Crystal form A of benzenesulfonate salt]
Purity (area%) ([1]; 25°C/60%RH/open, 1 week): 97.61 area% | Relative to initial (%) ([1]; 25°C/60%RH/open, 1 week): 99.8% | Crystal form ([1]; 25°C/60%RH/open, 1 week): Crystal form A of benzenesulfonate salt | Purity (area%) ([1]; 40°C/75%RH/open, 1 week): 97.61 area% | Relative to initial (%) ([1]; 40°C/75%RH/open, 1 week): 99.8% | Crystal form ([1]; 40°C/75%RH/open, 1 week): Crystal form A of benzenesulfonate salt | Purity (area%) ([1]; Initial): 97.78 area% | hygroscopicity ([2]; listed as crystal form A of the benzenesulfonate salt): slightly hygroscopic | S: solubility ([3]; FaSSIF, 1 hour, 60 min): 3980 µg/mL | S: solubility ([3]; FaSSIF, 4 hours, 240 min): 3640 µg/mL | S: solubility ([3]; FaSSIF, 24 hours, 1440 min): 3550 µg/mL | S: solubility ([3]; FeSSIF, 1 hour, 60 min): 3150 µg/mL | S: solubility ([3]; FeSSIF, 4 hours, 240 min): 2890 µg/mL | S: solubility ([3]; FeSSIF, 24 hours, 1440 min): 2910 µg/mL | S: solubility ([3]; H2O, 1 hour, 60 min): 8290 µg/mL | S: solubility ([3]; H2O, 4 hours, 240 min): 8390 µg/mL | S: solubility ([3]; H2O, 24 hours, 1440 min): 8120 µg/mL | S: solubility ([3]; SGF, 1 hour, 60 min): 9940 µg/mL | S: solubility ([3]; SGF, 4 hours, 240 min): 9950 µg/mL | S: solubility ([3]; SGF, 24 hours, 1440 min): 9700 µg/mL | pH ([3]; FaSSIF, 1 hour): 6.1 | pH ([3]; FaSSIF, 4 hours): 6.1 | pH ([3]; FaSSIF, 24 hours): 6.1 | pH ([3]; FeSSIF, 1 hour): 4.9 | pH ([3]; FeSSIF, 4 hours): 4.9 | pH ([3]; FeSSIF, 24 hours): 4.9 | pH ([3]; H2O, 1 hour): 5.6 | pH ([3]; H2O, 4 hours): 5.6 | pH ([3]; H2O, 24 hours): 5.6 | pH ([3]; SGF, 1 hour): 3.4 | pH ([3]; SGF, 4 hours): 3.5 | pH ([3]; SGF, 24 hours): 3.5
